The source of these data is patent US10702489B2, “Treatment of nervous system disorders using combinations of RXR agonists and thyroid hormones” (IO Therapeutics, Inc., priority 2015, dated 2020).

The test system of this experiment is mouse oligodendrocyte progenitor cells (OPCs). Put plainly: mouse OPC differentiation with IRX4204 and T3. In kind it is cell-based. The note with it: 5-day treatment; IRX4204 10, 1, 0.1 nM. How it is done:
OPCs were derived from plp-EGFP expressing mice.
Therapeutic agents were tested in 96-well plates (6 wells per concentration). […] All media contained 0.1% DMSO. At the end of the 5-day treatment, cells were imaged on Cellomics in two channels and algorithms were used to count nuclei and EGFP+oligodendrocytes.

As for `N[C@@H](Cc1cc(I)c(Oc2ccc(O)c(I)c2)c(I)c1)C(=O)O` [T3, triiodothyronine, reference compound], the “oligodendrocyte production (EGFP+ oligodendrocytes)” value is “clear dose-responses”.
